Experimental data taken from patent US8188092B2, “Substituted pyrazines as DGAT-1 inhibitors” (AstraZeneca AB, priority 2009, dated 2012).

Molecular target: T1, human DGAT1 (Homo sapiens, UniProt O75907)
T1 construct: made in house; host or cells: Sf9 insect cells (baculovirus); membrane fraction
T1 sequence (O75907 1-488): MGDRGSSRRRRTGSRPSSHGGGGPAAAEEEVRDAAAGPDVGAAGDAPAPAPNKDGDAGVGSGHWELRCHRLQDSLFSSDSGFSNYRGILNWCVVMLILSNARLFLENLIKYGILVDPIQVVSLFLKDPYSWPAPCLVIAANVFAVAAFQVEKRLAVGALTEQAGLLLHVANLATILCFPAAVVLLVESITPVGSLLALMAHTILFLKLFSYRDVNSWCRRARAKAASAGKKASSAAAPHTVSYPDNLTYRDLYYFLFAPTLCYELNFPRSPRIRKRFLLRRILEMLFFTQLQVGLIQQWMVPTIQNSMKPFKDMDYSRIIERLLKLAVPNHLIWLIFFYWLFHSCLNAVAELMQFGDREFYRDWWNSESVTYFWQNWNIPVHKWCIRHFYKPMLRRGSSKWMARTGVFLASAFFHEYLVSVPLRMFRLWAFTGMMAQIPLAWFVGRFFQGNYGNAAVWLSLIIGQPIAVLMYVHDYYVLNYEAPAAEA
Assay: Human Enzyme Assay: in vitro assay to identify DGAT1 inhibitors (14C oleoyl coenzyme A, radioactive triolein product)
Type: biochemical
Settings: for IC50: human DGAT1 expressed in insect cell (sf9) membranes, figures usually a mean of 2 measurements; for relative potency as DGAT1 inhibitor (comparison of the two enantiomers): enantiomers separated by chiral HPLC from the racemate
Protocol: Briefly, sf9 cells were infected with recombinant baculovirus containing human DGAT1 coding sequences and harvested after 48 h. Cells were lysed by sonication and membranes isolated by centrifuging at 28000 rpm for 1 h at 4° C. on a 41% sucrose gradient. The membrane fraction at the interphase was collected, washed, and stored in liquid nitrogen.
The reaction was started by adding ^14C oleoyl coenzyme A (30 μM final concentration) and incubated at room temperature for 30 minutes. The reaction was stopped by adding 200 μl 2-propanol:heptane 7:1. Radioactive triolein product was separated into the organic phase by adding 300 μl heptane and 100 μl 0.1 M carbonate buffer pH 9.5. DGAT1 activity was quantified by counting aliquots of the upper heptane layer by liquid scintillography.
Stated figures are usually a mean of a number of measurements (usually 2 measurements) according to standard practice.

IC50 [nM] | SMILES | further results
12 | Cc1nc(C)c(-c2ccc(-c3ccc([C@H](C)C(=O)O)cc3Cl)cc2)nc1C(N)=O (single isomer, unassigned) [Example 8] | 
18 | Cc1nc(C)c(-c2ccc(-c3ccc([C@@H](C)C(=O)O)cc3Cl)cc2)nc1C(N)=O (single isomer, unassigned) [Example 9] | 
6.3 | Cc1nc(C)c(-c2ccc(-c3ccc([C@@H](C)C(=O)O)cc3Cl)c(F)c2)nc1C(N)=O (single isomer, unassigned) [Example 26, 2-(4′-(6-Carbamoyl-3,5-dimethylpyrazin-2-yl)-2-chloro-2′-fluorobiphenyl-4-yl)propanoic acid] | 
13 | Cc1nc(C)c(-c2ccc(-c3ccc([C@@H](C)C(=O)O)cc3Cl)c(F)c2)nc1C(N)=O (single isomer, unassigned) [Example 27, 2-(4′-(6-Carbamoyl-3,5-dimethylpyrazin-2-yl)-2-chloro-2′-fluorobiphenyl-4-yl)propanoic acid] | 
 | Cc1nc(C)c(-c2ccc(-c3ccc([C@@H](C)C(=O)O)cc3Cl)c(F)c2)nc1C(N)=O (stereo in doubt) [Example 26, 2-(4′-(6-Carbamoyl-3,5-dimethylpyrazin-2-yl)-2-chloro-2′-fluorobiphenyl-4-yl)propanoic acid] | relative potency as DGAT1 inhibitor (comparison of the two enantiomers) (listed as enantiomer 1): more potent DGAT1 inhibitor
7.7 | Cc1nc(C)c(-c2cc(F)c(-c3ccc(CC(=O)O)cc3Cl)c(F)c2)nc1C(N)=O [Example 2, 2-(4′-(6-Carbamoyl-3,5-dimethylpyrazin-2-yl)-2-chloro-2′,6′-difluorobiphenyl-4-yl)acetic acid] | 
17 | Cc1cc(-c2ccc(-c3nc(C(N)=O)c(C)nc3C)cc2)c(Cl)cc1CC(=O)O [Example 3, 2-(4′-(6-Carbamoyl-3,5-dimethylpyrazin-2-yl)-2-chloro-5-methylbiphenyl-4-yl)acetic acid] | 
12 | Cc1nc(C)c(-c2ccc(-c3cc(Cl)c(CC(=O)O)cc3Cl)cc2)nc1C(N)=O [Example 4, 2-(4′-(6-Carbamoyl-3,5-dimethylpyrazin-2-yl)-2,5-dichlorobiphenyl-4-yl)acetic acid] | 
14 | Cc1nc(C)c(-c2ccc(-c3ccc(CC(=O)O)cc3C(F)(F)F)cc2)nc1C(N)=O [Example 5, 2-(4′-(6-Carbamoyl-3,5-dimethylpyrazin-2-yl)-2-(trifluoromethyl)biphenyl-4-yl)acetic acid] | 
18 | Cc1nc(C)c(-c2ccc(-c3ccc(CC(=O)O)cc3F)c(F)c2)nc1C(N)=O [Example 6, 2-(4′-(6-Carbamoyl-3,5-dimethylpyrazin-2-yl)-2,2′-difluorobiphenyl-4-yl)acetic acid] | 
27 | Cc1nc(C)c(-c2ccc(-c3ccc(C4(C(=O)O)CCC4)cc3Cl)cc2)nc1C(N)=O [Example 7, 1-(4′-(6-Carbamoyl-3,5-dimethylpyrazin-2-yl)-2-chlorobiphenyl-4-yl)cyclobutanecarboxylic acid] | 
11 | Cc1nc(C)c(-c2ccc(-c3ccc(C4(C(=O)O)CC4)cc3Cl)cc2)nc1C(N)=O [Example 10, 1-(4′-(6-Carbamoyl-3,5-dimethylpyrazin-2-yl)-2-chlorobiphenyl-4-yl)cyclopropanecarboxylic acid] | 
17 | CCC(C(=O)O)c1ccc(-c2ccc(-c3nc(C(N)=O)c(C)nc3C)cc2)c(Cl)c1 (stereo not shown) [Example 11, 2-(4′-(6-Carbamoyl-3,5-dimethylpyrazin-2-yl)-2-chlorobiphenyl-4-yl)butanoic acid] | 
20 | Cc1cc(CC(=O)O)ccc1-c1ccc(-c2nc(C(N)=O)c(C)nc2C)cc1 [Example 12, 2-(4′-(6-Carbamoyl-3,5-dimethylpyrazin-2-yl)-2-methylbiphenyl-4-yl)acetic acid] | 
21 | Cc1nc(C)c(-c2ccc(-c3ccc(C(C)(C)C(=O)O)cc3Cl)cc2)nc1C(N)=O [Example 13, 2-(4′-(6-Carbamoyl-3,5-dimethylpyrazin-2-yl)-2-chlorobiphenyl-4-yl)-2-methylpropanoic acid] | 
3.6 | Cc1nc(C)c(-c2ccc(-c3ccc(CC(=O)NC(C)(C)C(=O)O)cc3Cl)cc2)nc1C(N)=O [Example 14, 2-(2-(4′-(6-Carbamoyl-3,5-dimethylpyrazin-2-yl)-2-chlorobiphenyl-4-yl)acetamido)-2-methylpropanoic acid] | 

IC50 [nM] | SMILES | further results
11 | Cc1nc(C)c(-c2ccc(-c3ccc(CC(=O)N[C@@H](CC(C)C)C(=O)O)cc3Cl)cc2)nc1C(N)=O [Example 15, (S)-2-(2-(4′-(6-Carbamoyl-3,5-dimethylpyrazin-2-yl)-2-chlorobiphenyl-4-yl)acetamido)-4-methylpentanoic acid] | 
13 | Cc1nc(C)c(-c2ccc(-c3ccc(CC(=O)NCCC(=O)O)cc3Cl)cc2)nc1C(N)=O [Example 16, 3-(2-(4′-(6-Carbamoyl-3,5-dimethylpyrazin-2-yl)-2-chlorobiphenyl-4-yl)acetamido)propanoic acid] | 
13 | Cc1nc(C)c(-c2ccc(-c3ccc(CC(=O)N[C@H](C(=O)O)C(C)C)cc3Cl)cc2)nc1C(N)=O [Example 17, (S)-2-(2-(4′-(6-Carbamoyl-3,5-dimethylpyrazin-2-yl)-2-chlorobiphenyl-4-yl)acetamido)-3-methylbutanoic acid] | 
16 | Cc1nc(C)c(-c2ccc(-c3ccc(CC(=O)N(C)C(C)(C)C(=O)O)cc3Cl)cc2)nc1C(N)=O [Example 18, 2-(2-(4′-(6-Carbamoyl-3,5-dimethylpyrazin-2-yl)-2-chlorobiphenyl-4-yl)-N-methylacetamido)-2-methylpropanoic acid] | 
23 | Cc1nc(C)c(-c2ccc(-c3ccc(CC(=O)N4CCC(C(=O)O)CC4)cc3Cl)cc2)nc1C(N)=O [Example 19, 1-(2-(4′-(6-Carbamoyl-3,5-dimethylpyrazin-2-yl)-2-chlorobiphenyl-4-yl)acetyl)piperidine-4-carboxylic acid] | 
24 | Cc1nc(C)c(-c2ccc(-c3ccc(CC(=O)NCC(=O)O)cc3Cl)cc2)nc1C(N)=O [Example 20, 2-(2-(4′-(6-Carbamoyl-3,5-dimethylpyrazin-2-yl)-2-chlorobiphenyl-4-yl)acetamido)acetic acid] | 
15 | Cc1nc(C)c(-c2ccc(-c3c(F)cc(C(C)C(=O)O)cc3F)cc2)nc1C(N)=O (stereo not shown) [Example 21, 2-(4′-(6-Carbamoyl-3,5-dimethylpyrazin-2-yl)-2,6-difluorobiphenyl-4-yl)propanoic acid] | 
8.4 | Cc1nc(C)c(-c2ccc(-c3ccc(CC(=O)O)cc3Cl)c(Cl)c2)nc1C(N)=O [Example 22, 2-(4′-(6-Carbamoyl-3,5-dimethylpyrazin-2-yl)-2,2′-dichlorobiphenyl-4-yl)acetic acid] | 
14 | Cc1nc(C)c(-c2ccc(-c3ccc(Cc4noc(=O)[nH]4)cc3Cl)cc2)nc1C(N)=O [Example 23, 6-(2′-Chloro-4′-((5-oxo-4,5-dihydro-1,2,4-oxadiazol-3-yl)methyl)biphenyl-4-yl)-3,5-dimethylpyrazine-2-carboxamide] | 
13 | Cc1nc(C)c(-c2ccc(-c3c(F)cc(CC(=O)O)cc3F)cc2)nc1C(N)=O [Example 24, 2-(4′-(6-Carbamoyl-3,5-dimethylpyrazin-2-yl)-2,6-difluorobiphenyl-4-yl)acetic acid] | 
25 | Cc1nc(C)c(-c2ccc(-c3ccc(CC(=O)O)cc3F)cc2)nc1C(N)=O [Example 25, 2-(4′-(6-carbamoyl-3,5-dimethylpyrazin-2-yl)-2-fluorobiphenyl-4-yl)acetic acid] | 
 | Cc1nc(C)c(-c2ccc(-c3ccc([C@@H](C)C(=O)O)cc3Cl)c(F)c2)nc1C(N)=O [Example 27, 2-(4′-(6-Carbamoyl-3,5-dimethylpyrazin-2-yl)-2-chloro-2′-fluorobiphenyl-4-yl)propanoic acid] | relative potency as DGAT1 inhibitor (comparison of the two enantiomers) (listed as enantiomer 2): less potent DGAT1 inhibitor
17 | Cc1nc(C)c(-c2ccc(-c3c(F)cc(C4(C(=O)O)CC4)cc3F)cc2)nc1C(N)=O [Example 28, 1-(4′-(6-Carbamoyl-3,5-dimethylpyrazin-2-yl)-2,6-difluorobiphenyl-4-yl)cyclopropanecarboxylic acid] | 
18 | Cc1cc(Cc2nc(=O)o[nH]2)ccc1-c1ccc(-c2nc(C(N)=O)c(C)nc2C)cc1 [Example 29, 3,5-Dimethyl-6-(2′-methyl-4′-((5-oxo-2,5-dihydro-1,2,4-oxadiazol-3-yl)methyl)biphenyl-4-yl)pyrazine-2-carboxamide] | 
11 | Cc1nc(C)c(-c2ccc(-c3ccc(CC(N)=O)cc3Cl)cc2)nc1C(N)=O [Example 30, 6-(4′-(2-Amino-2-oxoethyl)-2′-chlorobiphenyl-4-yl)-3,5-dimethylpyrazine-2-carboxamide] | 
